Experimental findings from BindingDB's records for doi:10.1021/jm050004k (Karo Bio, 2005) are described below.

In test [1] the target is T1, Thyroid hormone receptor alpha (Homo sapiens, UniProt P10827).
T1 sequence (P10827 whole entry): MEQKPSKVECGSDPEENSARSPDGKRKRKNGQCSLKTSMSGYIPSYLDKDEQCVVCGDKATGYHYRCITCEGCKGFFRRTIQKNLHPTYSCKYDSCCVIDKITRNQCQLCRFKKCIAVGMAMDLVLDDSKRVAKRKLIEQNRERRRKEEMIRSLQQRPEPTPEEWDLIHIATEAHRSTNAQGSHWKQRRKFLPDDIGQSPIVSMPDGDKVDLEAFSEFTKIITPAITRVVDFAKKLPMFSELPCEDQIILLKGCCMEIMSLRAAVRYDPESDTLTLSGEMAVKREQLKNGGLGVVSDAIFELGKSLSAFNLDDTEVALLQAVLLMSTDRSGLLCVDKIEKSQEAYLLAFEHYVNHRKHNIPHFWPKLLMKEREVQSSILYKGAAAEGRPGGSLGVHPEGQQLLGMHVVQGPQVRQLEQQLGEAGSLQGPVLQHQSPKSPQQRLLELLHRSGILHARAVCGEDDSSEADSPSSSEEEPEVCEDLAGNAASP
The test is described as follows: TRalpha-Binding Assay and Thyroid Response Element (TRAFalpha1) Reporter Assay. The settings on record: pH 7; 4 °C. An excerpt:
IIC50 is the concentration of each compound required to inhibit 50% binding of 125I-T3 to hTRalpha. EC50 is the concentration of compound required to inhibit 50% of T3-induced TRalpha-activation in CHOK1 cells stably transfected with hTRalpha using alkaline phosphatase reporter assay.
Background: Reporter assays use an easily measured gene product as a stand-in for the process of interest.

The target in test [2] is T2, Thyroid hormone receptor beta (Homo sapiens, UniProt P10828).
T2 sequence (P10828 whole entry): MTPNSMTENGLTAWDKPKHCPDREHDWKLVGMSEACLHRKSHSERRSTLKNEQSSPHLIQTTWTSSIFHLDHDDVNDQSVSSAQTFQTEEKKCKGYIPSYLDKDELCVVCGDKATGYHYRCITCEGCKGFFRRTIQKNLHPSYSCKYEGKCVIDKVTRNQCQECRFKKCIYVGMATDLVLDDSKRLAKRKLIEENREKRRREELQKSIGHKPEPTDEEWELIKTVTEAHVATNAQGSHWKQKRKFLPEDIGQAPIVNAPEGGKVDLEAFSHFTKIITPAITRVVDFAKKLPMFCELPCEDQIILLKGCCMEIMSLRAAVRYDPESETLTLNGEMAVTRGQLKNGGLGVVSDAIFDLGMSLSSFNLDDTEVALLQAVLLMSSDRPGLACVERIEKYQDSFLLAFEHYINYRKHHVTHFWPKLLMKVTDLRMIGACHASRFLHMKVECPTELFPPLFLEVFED
Kind of test: TRbeta-Binding Assay and Thyroid Response Element (TRAFbeta1) Reporter Assay. The note with it: pH 7; 4 °C. An excerpt: IC50 is the concentration of each compound required to inhibit 50% binding of 125I-T3 to hTRbeta. EC50 is the concentration of compound required to inhibit 50% of T3-induced TRbeta-activation in CHOK1 cells stably transfected with hTRbeta using alkaline phosphatase reporter assay.

Broadly, the EC50 is the concentration that produces a half-maximal response. A lower EC50 goes with a more potent agent. A word on the IC50: it is the concentration needed to halve the response being measured. A low value points to inhibition by little substance.

As for `CCCCCCOc1c(Br)cc(CC(=O)O)cc1Br` [2-[3,5-dibromo-4-(hexyloxy)phenyl]acetic acid], the EC50 in test [1] was found to be 0.7 nM; in test [2] it was 0.8 nM.
In the same order, the values of `CCC(CC)COc1c(Br)cc(CC(=O)O)cc1Br` [2-[3,5-dibromo-4-(2-ethylbutoxy)phenyl]acetic acid] are 0.82 nM and 0.7 nM.
On to `O=C(O)CCc1cc(Br)c(OCC2CCCCC2)c(Br)c1` [JMC496635 Compound 9], for which the EC50 in test [1] came out at 0.53 nM; in test [2], 0.12 nM.
In the same order, the values of `O=C(O)Cc1cc(Br)c(OCC2CCCCC2)c(Br)c1` [2-[3,5-dibromo-4-(cyclohexylmethoxy)phenyl]acetic acid] are 0.42 nM and 0.52 nM.
Take `CC(C)CCOc1c(Br)cc(CC(=O)O)cc1Br` [2-[3,5-dibromo-4-(3-methylbutoxy)phenyl]acetic acid]: the IC50 in test [2] is 1800 nM.
Take `CCCCCCOc1c(Br)cc(CCC(=O)O)cc1Br` [3-[3,5-dibromo-4-(hexyloxy)phenyl]propanoic acid]: the results for the EC50 in test [1] and in test [2] were 0.6 nM and 1 nM, respectively.
